Experimental data reported in patent publication US20250270191A1, “QUINOLONE BCL6 BIFUNCTIONAL DEGRADERS” (Treeline Biosciences, Inc., priority 2022, published 2025).

These compounds were tested against T1, Human BCL6 protein (N-terminal HiBiT tagged BCL6 in HT1080 cells) (Homo sapiens, UniProt P41182+Q96SW2) (assay: HiBiT based BCL6 degradation assay). Conditions: HT1080 cells expressing N-terminal HiBiT tagged BCL6; 5 hours incubation; BCL6 degradation normalized with DMSO control.
T1 construct: Human BCL6 protein coding open reading frame; expressed in transfected cells; host or cells: HT1080 (ATCC CCL-121), stably transduced with lentivirus pLV-UBC-N-HiBiT-BCL6-PGK-puro
Format: cell-based
From the text: Human BCL6 protein coding open reading frame fused with N-terminal HiBiT coding sequence was synthesized from Integrated DNA Technologies (IDT). Next, the N-HiBiT-BCL6 sequence was cloned into pLV-UBC-PGK-Puro, a lentivirus plasmid purchased from Vectorbuilder, to generate pLV-UBC-N-HiBiT-BCL6-PGK-puro. Lentiviral particles were generated from Lenti-X™ 293T cells (Clontech) by co-transfection of pLV-UBC-N-HiBiT-BCL6-PGK-puro plasmids and lentiviral packaging plasmid mix (Cellecta). HT1080 [HT1080] (ATCC CCL-121) cells were infected with the lentivirus, and HT1080 cells stably integrated with the lentiviral vectors were established by incubation with 1 μg/mL puromycin (Thermofisher).
HT1080 cells expressing N-terminal HiBiT tagged BCL6 were dispensed into a 384-well plate pre-spotted with compounds at varying concentrations. Five thousand cells were seeded into each well in 40 μL of RPMI 1640 media plus 10% Fetal Bovine Serum (10082-147, Thermofisher). After 5 hours of incubation at 37° C. with 5% CO2, 30 μL of the NANO-GLO® HiBiT Lytic Detection System working solution (Promega) was added to each well and incubated at room temperature for 15 min. After incubation, luminescence was read on a PHERAstar FSX Plate Reader (BMG). BCL6 degradation at each indicated concentration was normalized with DMSO control. The BCL6 degradation curves were plotted using a four-parameter logistic model.

Compound	Ymin (5 hr)
CNC(=O)COc1cc2cc(Nc3nc(N4CCC(C5CN(c6ccc7c(C8CCC(=O)NC8=O)nn(C)c7c6)C5)CC4)ncc3Cl)ccc2n(C)c1=O (centres unmarked) [Compound 292, 2-((6-((5-chloro-2-(4-(1-(3-(2,6-dioxopiperidin-3-yl)-1-methyl-1H-indazol-6-yl)azetidin-3-yl)piperidin-1-yl)pyrimidin-4-yl)amino)-1-methyl-2-oxo-1,2-dihydroquinolin-3-yl)oxy)-N-methylacetamide]	+++ (25% < Ymin ≤ 50%)
CNC(=O)COc1cc2cc(Nc3nc(N4CCC(CCCOc5ccc6c(C7CCC(=O)NC7=O)nn(C)c6c5)CC4)ncc3Cl)ccc2n(C)c1=O (centres unmarked) [Compound 296, 2-((6-((5-chloro-2-(4-(3-((3-(2,6-dioxopiperidin-3-yl)-1-methyl-1H-indazol-6-yl)oxy)propyl)piperidin-1-yl)pyrimidin-4-yl)amino)-1-methyl-2-oxo-1,2-dihydroquinolin-3-yl)oxy)-N-methylacetamide]	+++ (25% < Ymin ≤ 50%)
CNC(=O)COc1cc2cc(Nc3nc(N4CCN(CC5CCC6(CC5)CN(c5ccc7c(C8CCC(=O)NC8=O)nn(C)c7c5)C6)CC4)ncc3Cl)ccc2n(C(C)C)c1=O (centres unmarked) [Compound 298, 2-((6-((5-chloro-2-(4-((2-(3-(2,6-dioxopiperidin-3-yl)-1-methyl-1H-indazol-6-yl)-2-azaspiro[3.5]nonan-7-yl)methyl)piperazin-1-yl)pyrimidin-4-yl)amino)-1-isopropyl-2-oxo-1,2-dihydroquinolin-3-yl)oxy)-N-methylacetamide]	+++ (25% < Ymin ≤ 50%)
CNC(=O)COc1cc2cc(Nc3nc(N4CCC[C@H](CN(C)c5cccc6c(C7CCC(=O)NC7=O)nn(C)c56)C4)ncc3Cl)ccc2n(C)c1=O (stereo partly drawn) [Compound 299a, 2-((6-((5-chloro-2-((3R)-3-(((3-(2,6-dioxopiperidin-3-yl)-1-methyl-1H-indazol-7-yl)(methyl)amino)methyl)piperidin-1-yl)pyrimidin-4-yl)amino)-1-methyl-2-oxo-1,2-dihydroquinolin-3-yl)oxy)-N-methylacetamide]	+++ (25% < Ymin ≤ 50%)
CNC(=O)COc1cc2cc(Nc3nc(N4CCC[C@@H]4CNc4cccc5c(C6CCC(=O)NC6=O)nn(C)c45)ncc3Cl)ccc2n(C)c1=O (stereo partly drawn) [Compound 300a, 2-((6-((5-chloro-2-((2R)-2-(((3-(2,6-dioxopiperidin-3-yl)-1-methyl-1H-indazol-7-yl)amino)methyl)pyrrolidin-1-yl)pyrimidin-4-yl)amino)-1-methyl-2-oxo-1,2-dihydroquinolin-3-yl)oxy)-N-methylacetamide]	++ (50% < Ymin ≤ 70%)
CNC(=O)COc1cc2cc(Nc3nc(N4CCC[C@H]4CNc4cccc5c(C6CCC(=O)NC6=O)nn(C)c45)ncc3Cl)ccc2n(C)c1=O (stereo partly drawn) [Compound 300b, 2-((6-((5-chloro-2-((2S)-2-(((3-(2,6-dioxopiperidin-3-yl)-1-methyl-1H-indazol-7-yl)amino)methyl)pyrrolidin-1-yl)pyrimidin-4-yl)amino)-1-methyl-2-oxo-1,2-dihydroquinolin-3-yl)oxy)-N-methylacetamide]	+ (Ymin > 70%)
CNC(=O)COc1cc2cc(Nc3nc(N4CCC[C@H](COc5cccc6c(C7CCC(=O)NC7=O)nn(C)c56)C4)ncc3Cl)ccc2n(C)c1=O (stereo partly drawn) [Compound 301a, 2-((6-((5-chloro-2-((3S)-3-(((3-(2,6-dioxopiperidin-3-yl)-1-methyl-1H-indazol-7-yl)oxy)methyl)piperidin-1-yl)pyrimidin-4-yl)amino)-1-methyl-2-oxo-1,2-dihydroquinolin-3-yl)oxy)-N-methylacetamide]	++ (50% < Ymin ≤ 70%)
CNC(=O)COc1cc2cc(Nc3nc(N4CCC[C@@H](COc5cccc6c(C7CCC(=O)NC7=O)nn(C)c56)C4)ncc3Cl)ccc2n(C)c1=O (stereo partly drawn) [Compound 301b, 2-((6-((5-chloro-2-((3R)-3-(((3-(2,6-dioxopiperidin-3-yl)-1-methyl-1H-indazol-7-yl)oxy)methyl)piperidin-1-yl)pyrimidin-4-yl)amino)-1-methyl-2-oxo-1,2-dihydroquinolin-3-yl)oxy)-N-methylacetamide]	++ (50% < Ymin ≤ 70%)

Other lines, results leading:

Ymin (5 hr)	Compound
+ (Ymin > 70%)	CNC(=O)COc1cc2cc(Nc3nc(NC[C@H]4CC[C@@H](Nc5ccc6c(C7CCC(=O)NC7=O)nn(C)c6c5)CC4)ncc3Cl)ccc2n(C)c1=O (some centres unmarked) [Compound 289a, 2-((6-((5-chloro-2-((((1s,4s)-4-((3-(2,6-dioxopiperidin-3-yl)-1-methyl-1H-indazol-6-yl)amino)cyclohexyl)methyl)amino)pyrimidin-4-yl)amino)-1-methyl-2-oxo-1,2-dihydroquinolin-3-yl)oxy)-N-methylacetamide]
++++ (Ymin ≤ 25%)	CNC(=O)COc1cc2cc(Nc3nc(NC[C@H]4CC[C@H](Nc5ccc6c(C7CCC(=O)NC7=O)nn(C)c6c5)CC4)ncc3Cl)ccc2n(C)c1=O (some centres unmarked) [Compound 289b, 2-((6-((5-chloro-2-((((1r,4r)-4-((3-(2,6-dioxopiperidin-3-yl)-1-methyl-1H-indazol-6-yl)amino)cyclohexyl)methyl)amino)pyrimidin-4-yl)amino)-1-methyl-2-oxo-1,2-dihydroquinolin-3-yl)oxy)-N-methylacetamide]
+++ (25% < Ymin ≤ 50%)	CNC(=O)COc1cc2cc(Nc3nc(NC[C@H]4CC[C@@H](CNc5ccc6c(C7CCC(=O)NC7=O)nn(C)c6c5)CC4)ncc3Cl)ccc2n(C)c1=O (some centres unmarked) [Compound 293a, 2-((6-((5-chloro-2-((((1s,4s)-4-(((3-(2,6-dioxopiperidin-3-yl)-1-methyl-1H-indazol-6-yl)amino)methyl)cyclohexyl)methyl)amino)pyrimidin-4-yl)amino)-1-methyl-2-oxo-1,2-dihydroquinolin-3-yl)oxy)-N-methylacetamide]
++ (50% < Ymin ≤ 70%)	CNC(=O)COc1cc2cc(Nc3nc(NC[C@H]4CC[C@H](CNc5ccc6c(C7CCC(=O)NC7=O)nn(C)c6c5)CC4)ncc3Cl)ccc2n(C)c1=O (some centres unmarked) [Compound 293b, 2-((6-((5-chloro-2-((((1r,4r)-4-(((3-(2,6-dioxopiperidin-3-yl)-1-methyl-1H-indazol-6-yl)amino)methyl)cyclohexyl)methyl)amino)pyrimidin-4-yl)amino)-1-methyl-2-oxo-1,2-dihydroquinolin-3-yl)oxy)-N-methylacetamide]
++ (50% < Ymin ≤ 70%)	CNC(=O)COc1cc2cc(Nc3nc(NC[C@H]4CCCN(c5ccc6c(C7CCC(=O)NC7=O)nn(C)c6c5)C4)ncc3Cl)ccc2n(C)c1=O (stereo partly drawn) [Compound 295a, 2-((6-((5-chloro-2-((((3R)-1-(3-(2,6-dioxopiperidin-3-yl)-1-methyl-1H-indazol-6-yl)piperidin-3-yl)methyl)amino)pyrimidin-4-yl)amino)-1-methyl-2-oxo-1,2-dihydroquinolin-3-yl)oxy)-N-methylacetamide]
++ (50% < Ymin ≤ 70%)	CNC(=O)COc1cc2cc(Nc3nc(NC[C@@H]4CCCN(c5ccc6c(C7CCC(=O)NC7=O)nn(C)c6c5)C4)ncc3Cl)ccc2n(C)c1=O (stereo partly drawn) [Compound 295b, 2-((6-((5-chloro-2-((((3S)-1-(3-(2,6-dioxopiperidin-3-yl)-1-methyl-1H-indazol-6-yl)piperidin-3-yl)methyl)amino)pyrimidin-4-yl)amino)-1-methyl-2-oxo-1,2-dihydroquinolin-3-yl)oxy)-N-methylacetamide]
++ (50% < Ymin ≤ 70%)	CNC(=O)COc1cc2cc(Nc3nc(NC[C@H]4CC[C@@H](CNc5cccc6c(C7CCC(=O)NC7=O)nn(C)c56)CC4)ncc3Cl)ccc2n(C)c1=O (some centres unmarked) [Compound 297a, 2-((6-((5-chloro-2-((((1s,4s)-4-(((3-(2,6-dioxopiperidin-3-yl)-1-methyl-1H-indazol-7-yl)amino)methyl)cyclohexyl)methyl)amino)pyrimidin-4-yl)amino)-1-methyl-2-oxo-1,2-dihydroquinolin-3-yl)oxy)-N-methylacetamide]
++ (50% < Ymin ≤ 70%)	CNC(=O)COc1cc2cc(Nc3nc(NC[C@H]4CC[C@H](CNc5cccc6c(C7CCC(=O)NC7=O)nn(C)c56)CC4)ncc3Cl)ccc2n(C)c1=O (some centres unmarked) [Compound 297b, 2-((6-((5-chloro-2-((((1r,4r)-4-(((3-(2,6-dioxopiperidin-3-yl)-1-methyl-1H-indazol-7-yl)amino)methyl)cyclohexyl)methyl)amino)pyrimidin-4-yl)amino)-1-methyl-2-oxo-1,2-dihydroquinolin-3-yl)oxy)-N-methylacetamide]
++ (50% < Ymin ≤ 70%)	CNC(=O)COc1cc2cc(Nc3nc(N4CCC[C@H](COc5ccc6c(C7CCC(=O)NC7=O)nn(C)c6c5)C4)ncc3Cl)ccc2n(C)c1=O (stereo partly drawn) [Compound 302a, 2-((6-((5-chloro-2-((3S)-3-(((3-(2,6-dioxopiperidin-3-yl)-1-methyl-1H-indazol-6-yl)oxy)methyl)piperidin-1-yl)pyrimidin-4-yl)amino)-1-methyl-2-oxo-1,2-dihydroquinolin-3-yl)oxy)-N-methylacetamide]
